Laboratory results reported in PubChem BioAssay AID248 (DTP/NCI, 2004).
Inconclusive results and toxic doses are left out. Rule as the data show it: active = T/C of 150% or more; inactive = T/C below 125%.

System: L1210 leukemia ip in BDF1 mice, survival T/C
Test: NCI In Vivo Anticancer Drug Screen. Data for tumor model L1210 Leukemia (intraperitoneal) in B6D2F1 (BDF1) mice
Settings: endpoint: mean survival time, higher = longer survival
In short: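 Transplantable tumor model; survival measured in treated vs vehicle control mice. Value = treated/control.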

[1] = dose: 100.0 mg/kg/injection, schedule: Q01DX009 (ip), vehicle: saline with Tween-80
[2] = dose: 100.0 mg/kg/injection, schedule: Q04DX003 (ip), vehicle: saline with Tween-80
[3] = dose: 200.0 mg/kg/injection, schedule: Q04DX003 (ip), vehicle: saline with Tween-80
[4] = dose: 100.0 mg/kg/injection, schedule: Q01DX001 (ip), vehicle: saline
[5] = dose: 200.0 mg/kg/injection, schedule: Q01DX001 (ip), vehicle: saline
[6] = dose: 400.0 mg/kg/injection, schedule: Q01DX001 (ip), vehicle: saline
[7] = dose: 200.0 mg/kg/injection, schedule: Q01DX009 (ip), vehicle: saline with Tween-80
[8] = dose: 400.0 mg/kg/injection, schedule: Q01DX009 (ip), vehicle: saline with Tween-80
[9] = dose: 400.0 mg/kg/injection, schedule: Q04DX003 (ip), vehicle: saline with Tween-80
[10] = dose: 100.0 mg/kg/injection, schedule: Q01DX009 (ip), vehicle: Klucel (hydroxypropylcellulose) (HPC)
[11] = dose: 200.0 mg/kg/injection, schedule: Q01DX009 (ip), vehicle: Klucel (hydroxypropylcellulose) (HPC)
[12] = dose: 400.0 mg/kg/injection, schedule: Q01DX009 (ip), vehicle: Klucel (hydroxypropylcellulose) (HPC)
[13] = dose: 50.0 mg/kg/injection, schedule: Q01DX001 (ip), vehicle: saline
[14] = dose: 100.0 mg/kg/injection, schedule: Q04DX003 (ip), vehicle: saline
[15] = dose: 12.5 mg/kg/injection, schedule: Q01DX009 (ip), vehicle: saline
[16] = dose: 25.0 mg/kg/injection, schedule: Q01DX009 (ip), vehicle: saline
[17] = dose: 25.0 mg/kg/injection, schedule: Q04DX003 (ip), vehicle: saline
[18] = dose: 50.0 mg/kg/injection, schedule: Q04DX003 (ip), vehicle: saline

Measured: T/C

CNCCOc1ccccc1
inactive: dose: 50.0 mg/kg/injection, schedule: Q01DX009 (ip), vehicle: saline with Tween-80 105 % of control | [1] 101 % of control | [2] 107 % of control | [3] 93 % of control

NC(=O)c1cc(C(N)=O)c(N)nc1N
inactive: dose: 100.0 mg/kg/injection, schedule: Q04DX003 (ip), vehicle: Klucel (hydroxypropylcellulose) (HPC) 100 % of control | dose: 200.0 mg/kg/injection, schedule: Q04DX003 (ip), vehicle: Klucel (hydroxypropylcellulose) (HPC) 97 % of control | dose: 400.0 mg/kg/injection, schedule: Q04DX003 (ip), vehicle: Klucel (hydroxypropylcellulose) (HPC) 94 % of control

C[N+]1(C)C2CCC1C(CO)C(O)C2 (centres undefined)
inactive: [4] 94 % of control | [5] 97 % of control | [6] 94 % of control

CN(C)C(=O)c1cccc(NC(=O)Oc2ccccc2)c1
inactive: [1] 109 % of control | [2] 102 % of control | [7] 101 % of control | [3] 100 % of control | [8] 101 % of control | [9] 102 % of control

O=C(NCCCCCCNC(=O)Oc1ccccc1F)Oc1ccccc1F
inactive: [10] 102 % of control | [11] 97 % of control | [12] 91 % of control

CCS(=O)(=O)Cc1ccccc1
inactive: [10] 100 % of control | [11] 106 % of control | [12] 102 % of control

O=S(=O)(F)/C=C/c1ccccc1
inactive: dose: 15.0 mg/kg/injection, schedule: Q01DX015 (ip), vehicle: saline 96 % of control | dose: 30.0 mg/kg/injection, schedule: Q01DX015 (ip), vehicle: saline 96 % of control | dose: 60.0 mg/kg/injection, schedule: Q01DX015 (ip), vehicle: saline 100 % of control | dose: 120.0 mg/kg/injection, schedule: Q01DX015 (ip), vehicle: saline 96 % of control

O=[N+]([O-])c1ccc(O)c(C=NCC2CCCC[N-]2)c1.O=[N+]([O-])c1ccc(O)c(C=NCC2CCCC[N-]2)c1.[Ni+2] (centres undefined)
inactive: [2] 90 % of control | [3] 90 % of control

Cc1ccc(C(=O)c2ccccc2C(=O)O)cc1N
inactive: [1] 105 % of control | [2] 99 % of control | [7] 97 % of control | [3] 99 % of control | [8] 106 % of control | [9] 97 % of control

CSCc1ccccn1
inactive: [13] 106 % of control | [4] 101 % of control | [5] 93 % of control | [6] 104 % of control

O=C1C(Cl)=C(N2CC2)C(=O)C(Cl)=C1N1CC1
inactive: dose: 0.31 mg/kg/injection, schedule: Q01DX009 (ip), vehicle: alcohol 106 % of control | dose: 0.62 mg/kg/injection, schedule: Q01DX009 (ip), vehicle: alcohol 112 % of control | dose: 1.25 mg/kg/injection, schedule: Q01DX009 (ip), vehicle: alcohol 106 % of control | dose: 1.25 mg/kg/injection, schedule: Q01DX009 (ip), vehicle: saline 113 % of control | dose: 2.5 mg/kg/injection, schedule: Q01DX009 (ip), vehicle: alcohol 112 % of control | dose: 5.0 mg/kg/injection, schedule: Q01DX009 (ip), vehicle: alcohol 118 % of control | dose: 10.0 mg/kg/injection, schedule: Q01DX009 (ip), vehicle: saline 114 % of control

Nc1cccnn1
inactive: dose: 100.0 mg/kg/injection, schedule: Q01DX009 (ip), vehicle: saline 99 % of control | [14] 109 % of control | dose: 200.0 mg/kg/injection, schedule: Q01DX009 (ip), vehicle: saline 99 % of control | dose: 200.0 mg/kg/injection, schedule: Q04DX003 (ip), vehicle: saline 117 % of control | dose: 400.0 mg/kg/injection, schedule: Q01DX009 (ip), vehicle: saline 103 % of control | dose: 400.0 mg/kg/injection, schedule: Q04DX003 (ip), vehicle: saline 120 % of control

COc1cc(C)nc(OC)n1
inactive: [4] 96 % of control | [5] 96 % of control | [6] 96 % of control

CCOC(=O)C(=[N+]=[N-])S(=O)(=O)c1ccccc1
inactive: [2] 97 % of control | [3] 101 % of control | [9] 114 % of control

ClCCN(CCCl)c1ccc(/C=N/N2CCN(/N=C/c3ccc(N(CCCl)CCCl)cc3)CC2)cc1
inactive: dose: 100.0 mg/kg/injection, schedule: Q01DX001 (ip), vehicle: carboxymethylcellulose (CMC) 97 % of control | dose: 200.0 mg/kg/injection, schedule: Q01DX001 (ip), vehicle: carboxymethylcellulose (CMC) 92 % of control | dose: 400.0 mg/kg/injection, schedule: Q01DX001 (ip), vehicle: carboxymethylcellulose (CMC) 106 % of control

CN(C)CCCN1c2ccccc2Sc2c(Cl)cc(Cl)cc21
inactive: dose: 6.25 mg/kg/injection, schedule: Q01DX009 (ip), vehicle: saline 97 % of control | [15] 103 % of control | [16] 101 % of control | [17] 94 % of control | dose: 50.0 mg/kg/injection, schedule: Q01DX009 (ip), vehicle: saline 104 % of control | [18] 113 % of control | [14] 118 % of control

CCN(CC)CCCC(C)Nc1ccccn1 (centres undefined)
inactive: dose: 75.0 mg/kg/injection, schedule: Q01DX001 (ip), vehicle: carboxymethylcellulose (CMC) 102 % of control | dose: 150.0 mg/kg/injection, schedule: Q01DX001 (ip), vehicle: carboxymethylcellulose (CMC) 100 % of control

CCCCNc1cc2c3c(c1)CCCN3CCC2
inactive: [15] 107 % of control | dose: 12.5 mg/kg/injection, schedule: Q04DX003 (ip), vehicle: saline 95 % of control | [16] 103 % of control | [17] 98 % of control | [18] 95 % of control

C=C(C)C1(CCC(C)C)C(=O)NC(=O)NC1=O
inactive: dose: 75.0 mg/kg/injection, schedule: Q01DX001 (ip), vehicle: saline 109 % of control | dose: 150.0 mg/kg/injection, schedule: Q01DX001 (ip), vehicle: saline 104 % of control | dose: 300.0 mg/kg/injection, schedule: Q01DX001 (ip), vehicle: saline 105 % of control

CCCN1CCCC(OC(=O)N(C)C)C1 (centres undefined)
inactive: dose: 100.0 mg/kg/injection, schedule: Q04DX002 (ip), vehicle: Klucel (hydroxypropylcellulose) (HPC) 86 % of control | dose: 200.0 mg/kg/injection, schedule: Q04DX002 (ip), vehicle: Klucel (hydroxypropylcellulose) (HPC) 104 % of control

CC(c1ccccc1)C(C)(C#N)c1ccccc1 (centres undefined)
inactive: [13] 97 % of control | [4] 100 % of control | [5] 100 % of control | [6] 103 % of control

CC(=O)OC1CCC2(C)C(=CCC3C2CCC2(C)C3CC3OC4(CCC(C)CO4)C(C)C32)C1 (centres undefined)
inactive: [10] 98 % of control | [11] 96 % of control | [12] 95 % of control

C1CCC(NC2=NCCO2)CC1
inactive: dose: 12.5 mg/kg/injection, schedule: Q04DX002 (ip), vehicle: saline with Tween-80 101 % of control | dose: 25.0 mg/kg/injection, schedule: Q04DX002 (ip), vehicle: saline with Tween-80 93 % of control | dose: 50.0 mg/kg/injection, schedule: Q04DX002 (ip), vehicle: saline with Tween-80 90 % of control
